Test results: patent US20250353891A1 (MEDIMMUNE LIMITED, priority 2022, published 2025)
Starred links: 1 amine or outer side, 2 acyl side, 3 side chain; linkers in the order of their positions; H or OH if unused. Non-standard residues stand in square brackets, D forms with d. Residues, ends and D or L forms follow the SMILES beside them. Groups on a side chain read outwards from the residue. *: point of attachment. C20 diacid = O=C(O)CCCCCCCCCCCCCCCCCCC(=O)*; C18 diacid = O=C(O)CCCCCCCCCCCCCCCCC(=O)*; γGlu = O=C(O)[C@H](CCC(=O)[*:2])N[*:1]; αMeF = C[C@](N)(Cc1ccccc1)C(=O)O; AEEA = NCCOCCOCC(=O)O; Aib = CC(C)(N)C(=O)O

Experiments:
[1] = biological target: human GLP-1 receptor (hGLP-1R) (Homo sapiens, UniProt P43220); test: cAMP production (HTRF) in CHO cells expressing hGLP-1R; assay type: cell-based; set-up: expressed in transfected cells; details: for EC50: Table 7, peptides modified at position 20, cAMP in CHO hGLP-1R cells, geometric mean, read-out: hGLP-1R EC50; for % Relative Potency Ratio: Table 7, % GLP-1R activity relative to GLP-1 / % GlucR activity relative to glucagon
Sequence of human GLP-1 receptor (hGLP-1R) (P43220 24-463): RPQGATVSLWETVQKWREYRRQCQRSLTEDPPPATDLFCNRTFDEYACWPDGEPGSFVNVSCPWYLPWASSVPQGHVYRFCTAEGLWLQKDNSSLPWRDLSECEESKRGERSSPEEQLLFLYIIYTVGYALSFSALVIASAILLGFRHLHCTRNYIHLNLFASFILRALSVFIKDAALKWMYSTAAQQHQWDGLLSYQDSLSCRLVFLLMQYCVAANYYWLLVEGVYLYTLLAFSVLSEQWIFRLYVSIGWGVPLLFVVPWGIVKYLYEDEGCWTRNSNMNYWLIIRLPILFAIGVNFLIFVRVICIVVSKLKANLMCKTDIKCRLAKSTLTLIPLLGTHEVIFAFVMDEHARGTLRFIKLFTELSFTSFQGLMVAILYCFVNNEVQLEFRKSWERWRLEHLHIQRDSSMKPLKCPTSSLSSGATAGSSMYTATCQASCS
Method in brief: (§1)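 Read-out: HTRF cAMP (anti-cAMP cryptate donor, cAMP-d2 acceptor in conjugate/lysis buffer), converted to % Delta F and fitted by 4-parameter logistic for EC50. Cell densities were 1×10^5 cells/mL (hGLP-1R) or 2×10^5 cells/mL (hGCGR). Stimulation lasted 30 min at room temperature.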

[2] = biological target: human glucagon receptor (hGCGR) (Homo sapiens, UniProt P47871); test: cAMP production (HTRF) in CHO cells expressing hGCGR; assay type: cell-based; set-up: expressed in transfected cells; details: Table 7, peptides modified at position 20; cAMP in CHO hGCGR cells; geometric mean; read-out: hGluc-R EC50
Sequence of human glucagon receptor (hGCGR) (P47871 26-477): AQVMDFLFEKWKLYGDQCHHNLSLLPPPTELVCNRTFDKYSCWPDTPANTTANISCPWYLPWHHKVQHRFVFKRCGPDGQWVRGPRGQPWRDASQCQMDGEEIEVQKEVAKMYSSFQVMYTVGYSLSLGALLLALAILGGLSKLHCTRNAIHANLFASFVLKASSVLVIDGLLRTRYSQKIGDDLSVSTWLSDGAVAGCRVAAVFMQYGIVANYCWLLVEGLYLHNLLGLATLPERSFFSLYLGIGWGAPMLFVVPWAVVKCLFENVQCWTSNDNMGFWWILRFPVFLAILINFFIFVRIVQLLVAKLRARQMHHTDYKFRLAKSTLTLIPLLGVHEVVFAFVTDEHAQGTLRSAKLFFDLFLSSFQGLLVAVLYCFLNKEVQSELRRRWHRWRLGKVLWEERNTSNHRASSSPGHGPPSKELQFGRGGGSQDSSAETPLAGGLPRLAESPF
Method in brief: as §1

SMILES | EC50 [1] | % Relative Potency Ratio [1] | EC50 [2]
CC[C@H](C)[C@H](NC(=O)C(C)(C)NC(=O)[C@H](CCC(N)=O)NC(=O)[C@@H](NC(=O)[C@](C)(Cc1ccccc1)NC(=O)[C@H](CC(=O)O)NC(=O)[C@H](CCCCNC(=O)COCCOCCNC(=O)COCCOCCNC(=O)CC[C@H](NC(=O)CCCCCCCCCCCCCCCCC(=O)O)C(=O)O)NC(=O)[C@H](C)NC(=O)[C@H](C)NC(=O)[C@H](CCCNC(=N)N)NC(=O)[C@H](CO)NC(=O)[C@H](CC(=O)O)NC(=O)[C@H](CC(C)C)NC(=O)[C@](C)(Cc1ccccc1)NC(=O)[C@H](CCCCN)NC(=O)[C@H](CO)NC(=O)[C@@H](NC(=O)[C@H](CC(=O)O)NC(=O)[C@H](CO)NC(=O)[C@@H](NC(=O)[C@](C)(Cc1ccccc1)NC(=O)[C@H](CO)NC(=O)CNC(=O)[C@H](Cc1c[nH]cn1)NC(=O)C(C)(C)NC(=O)[C@@H](N)Cc1c[nH]cn1)[C@@H](C)O)C(C)C)C(C)C)C(=O)N[C@@H](C)C(=O)N[C@@H](CC(N)=O)C(=O)N[C@H](C(=O)NCC(=O)NCC(N)=O)[C@@H](C)O [Peptide 225] (H-H[Aib]HGS[αMeF]TSDVSK[αMeF]LDSRAAK([AEEA-AEEA-γGlu-C18 diacid])D[αMeF]VQ[Aib]IANTGG-NH2) | 34.9 pM | 8.2 | 145 pM
CC[C@H](C)[C@H](NC(=O)C(C)(C)NC(=O)[C@H](CCC(=O)O)NC(=O)[C@@H](NC(=O)[C@](C)(Cc1ccccc1)NC(=O)[C@H](CC(=O)O)NC(=O)[C@H](CCCCNC(=O)COCCOCCNC(=O)COCCOCCNC(=O)CC[C@H](NC(=O)CCCCCCCCCCCCCCCCC(=O)O)C(=O)O)NC(=O)[C@H](C)NC(=O)[C@H](C)NC(=O)[C@H](CCCNC(=N)N)NC(=O)[C@H](CO)NC(=O)[C@H](CC(=O)O)NC(=O)[C@H](CC(C)C)NC(=O)[C@](C)(Cc1ccccc1)NC(=O)[C@H](CCCCN)NC(=O)[C@H](CO)NC(=O)[C@@H](NC(=O)[C@H](CC(=O)O)NC(=O)[C@H](CO)NC(=O)[C@@H](NC(=O)[C@](C)(Cc1ccccc1)NC(=O)[C@H](CO)NC(=O)CNC(=O)[C@H](Cc1c[nH]cn1)NC(=O)C(C)(C)NC(=O)[C@@H](N)Cc1c[nH]cn1)[C@@H](C)O)C(C)C)C(C)C)C(=O)N[C@@H](C)C(=O)N[C@@H](CC(N)=O)C(=O)N[C@H](C(N)=O)[C@@H](C)O [Peptide 226] (H-H[Aib]HGS[αMeF]TSDVSK[αMeF]LDSRAAK([AEEA-AEEA-γGlu-C18 diacid])D[αMeF]VE[Aib]IANT-NH2) | 82.7 pM | 0.7 | 27.4 pM
CC[C@H](C)[C@H](NC(=O)C(C)(C)NC(=O)[C@H](C)NC(=O)[C@@H](NC(=O)[C@](C)(Cc1ccccc1)NC(=O)[C@H](CC(=O)O)NC(=O)[C@H](CCCCNC(=O)COCCOCCNC(=O)COCCOCCNC(=O)CC[C@H](NC(=O)CCCCCCCCCCCCCCCCC(=O)O)C(=O)O)NC(=O)[C@H](C)NC(=O)[C@H](C)NC(=O)[C@H](CCCNC(=N)N)NC(=O)[C@H](CO)NC(=O)[C@H](CC(=O)O)NC(=O)[C@H](CC(C)C)NC(=O)[C@](C)(Cc1ccccc1)NC(=O)[C@H](CCCCN)NC(=O)[C@H](CO)NC(=O)[C@@H](NC(=O)[C@H](CC(=O)O)NC(=O)[C@H](CO)NC(=O)[C@@H](NC(=O)[C@](C)(Cc1ccccc1)NC(=O)[C@H](CO)NC(=O)CNC(=O)[C@H](Cc1c[nH]cn1)NC(=O)C(C)(C)NC(=O)[C@@H](N)Cc1c[nH]cn1)[C@@H](C)O)C(C)C)[C@@H](C)CC)C(=O)N[C@@H](C)C(=O)N[C@@H](CC(N)=O)C(=O)N[C@H](C(N)=O)[C@@H](C)O [Peptide 227] (H-H[Aib]HGS[αMeF]TSDVSK[αMeF]LDSRAAK([AEEA-AEEA-γGlu-C18 diacid])D[αMeF]IA[Aib]IANT-NH2) | 70.5 pM | 0.8 | 27.2 pM
CC[C@H](C)[C@H](NC(=O)C(C)(C)NC(=O)[C@H](CCC(N)=O)NC(=O)[C@@H](NC(=O)[C@](C)(Cc1ccccc1)NC(=O)[C@H](CC(=O)O)NC(=O)[C@H](CCCCNC(=O)COCCOCCNC(=O)COCCOCCNC(=O)CC[C@H](NC(=O)CC[C@H](NC(=O)CCCCCCCCCCCCCCCCCCC(=O)O)C(=O)O)C(=O)O)NC(=O)[C@H](C)NC(=O)[C@H](C)NC(=O)[C@H](CCCNC(=N)N)NC(=O)[C@H](CO)NC(=O)[C@H](CC(=O)O)NC(=O)[C@H](CC(C)C)NC(=O)[C@](C)(Cc1ccccc1)NC(=O)[C@H](CCCCN)NC(=O)[C@H](CO)NC(=O)[C@@H](NC(=O)[C@H](CC(=O)O)NC(=O)[C@H](CO)NC(=O)[C@@H](NC(=O)[C@](C)(Cc1ccccc1)NC(=O)[C@H](CO)NC(=O)CNC(=O)[C@H](Cc1c[nH]cn1)NC(=O)C(C)(C)NC(=O)[C@@H](N)Cc1c[nH]cn1)[C@@H](C)O)C(C)C)C(C)C)C(=O)N[C@@H](C)C(=O)N[C@@H](CC(N)=O)C(=O)N[C@H](C(=O)NCC(=O)NCC(N)=O)[C@@H](C)O [Peptide 232] (H-H[Aib]HGS[αMeF]TSDVSK[αMeF]LDSRAAK([AEEA-AEEA-γGlu-γGlu-C20 diacid])D[αMeF]VQ[Aib]IANTGG-NH2; N-terminus assumed) | 110 pM | 18.4 | 1020 pM

The remaining lines, values ahead:

EC50 [1] | % Relative Potency Ratio [1] | EC50 [2] | SMILES
200 pM | 1.7 | 177 pM | CC[C@H](C)[C@H](NC(=O)[C@H](Cc1c[nH]c2ccccc12)NC(=O)[C@H](CCC(N)=O)NC(=O)[C@@H](NC(=O)[C@](C)(Cc1ccccc1)NC(=O)[C@H](CC(=O)O)NC(=O)[C@H](CCCCNC(=O)COCCOCCNC(=O)COCCOCCNC(=O)CC[C@H](NC(=O)CC[C@H](NC(=O)CCCCCCCCCCCCCCCCCCC(=O)O)C(=O)O)C(=O)O)NC(=O)[C@H](C)NC(=O)[C@H](C)NC(=O)[C@H](CCCNC(=N)N)NC(=O)[C@H](CO)NC(=O)[C@H](CC(=O)O)NC(=O)[C@H](CC(C)C)NC(=O)[C@](C)(Cc1ccccc1)NC(=O)[C@H](CCCCN)NC(=O)[C@H](CO)NC(=O)[C@@H](NC(=O)[C@H](CC(=O)O)NC(=O)[C@H](CO)NC(=O)[C@@H](NC(=O)[C@](C)(Cc1ccccc1)NC(=O)[C@H](CO)NC(=O)CNC(=O)[C@H](Cc1c[nH]cn1)NC(=O)C(C)(C)NC(=O)[C@@H](N)Cc1c[nH]cn1)[C@@H](C)O)C(C)C)C(C)C)C(=O)N[C@@H](C)C(=O)N[C@@H](CC(N)=O)C(=O)N[C@H](C(N)=O)[C@@H](C)O [Peptide 228] (H-H[Aib]HGS[αMeF]TSDVSK[αMeF]LDSRAAK([AEEA-AEEA-γGlu-γGlu-C20 diacid])D[αMeF]VQWIANT-NH2; N-terminus assumed)
49.9 pM | 2.3 | 58.5 pM | CC[C@H](C)[C@H](NC(=O)C(C)(C)NC(=O)[C@H](CCC(N)=O)NC(=O)[C@@H](NC(=O)[C@](C)(Cc1ccccc1)NC(=O)[C@H](CC(=O)O)NC(=O)[C@H](CCCCNC(=O)COCCOCCNC(=O)COCCOCCNC(=O)CC[C@H](NC(=O)CC[C@H](NC(=O)CCCCCCCCCCCCCCCCC(=O)O)C(=O)O)C(=O)O)NC(=O)[C@H](C)NC(=O)[C@H](C)NC(=O)[C@H](CCCNC(=N)N)NC(=O)[C@H](CO)NC(=O)[C@H](CC(=O)O)NC(=O)[C@H](CC(C)C)NC(=O)[C@](C)(Cc1ccccc1)NC(=O)[C@H](CCCCN)NC(=O)[C@H](CO)NC(=O)[C@@H](NC(=O)[C@H](CC(=O)O)NC(=O)[C@H](CO)NC(=O)[C@@H](NC(=O)[C@](C)(Cc1ccccc1)NC(=O)[C@H](CO)NC(=O)CNC(=O)[C@H](Cc1c[nH]cn1)NC(=O)C(C)(C)NC(=O)[C@@H](N)Cc1c[nH]cn1)[C@@H](C)O)C(C)C)C(C)C)C(=O)N[C@@H](C)C(=O)N[C@@H](CC(N)=O)C(=O)N[C@H](C(N)=O)[C@@H](C)O [Peptide 231] (H-H[Aib]HGS[αMeF]TSDVSK[αMeF]LDSRAAK([AEEA-AEEA-γGlu-γGlu-C18 diacid])D[αMeF]VQ[Aib]IANT-NH2)
440 pM | 1.8 | 407 pM | CC[C@H](C)[C@H](NC(=O)C(C)(C)NC(=O)[C@H](CCC(=O)O)NC(=O)[C@@H](NC(=O)[C@](C)(Cc1ccccc1)NC(=O)[C@H](CC(=O)O)NC(=O)[C@H](CCCCNC(=O)COCCOCCNC(=O)COCCOCCNC(=O)CC[C@H](NC(=O)CC[C@H](NC(=O)CCCCCCCCCCCCCCCCCCC(=O)O)C(=O)O)C(=O)O)NC(=O)[C@H](C)NC(=O)[C@H](C)NC(=O)[C@H](CCCNC(=N)N)NC(=O)[C@H](CO)NC(=O)[C@H](CC(=O)O)NC(=O)[C@H](CC(C)C)NC(=O)[C@](C)(Cc1ccccc1)NC(=O)[C@H](CCCCN)NC(=O)[C@H](CO)NC(=O)[C@@H](NC(=O)[C@H](CC(=O)O)NC(=O)[C@H](CO)NC(=O)[C@@H](NC(=O)[C@](C)(Cc1ccccc1)NC(=O)[C@H](CO)NC(=O)CNC(=O)[C@H](Cc1c[nH]cn1)NC(=O)C(C)(C)NC(=O)[C@@H](N)Cc1c[nH]cn1)[C@@H](C)O)C(C)C)C(C)C)C(=O)N[C@@H](C)C(=O)N[C@@H](CC(N)=O)C(=O)N[C@H](C(N)=O)[C@@H](C)O [Peptide 233] (H-H[Aib]HGS[αMeF]TSDVSK[αMeF]LDSRAAK([AEEA-AEEA-γGlu-γGlu-C20 diacid])D[αMeF]VE[Aib]IANT-NH2; N-terminus assumed)
